Reference: the NIST ThermoML archive (doi:10.1016/j.jct.2018.09.011)
“And” between values parts separate entries of the source, which are not always exact repeats. Equal entries are not always repeated.

Assays:
[1] = for Normal melting temperature: DTA
[2] = Molar enthalpy of transition or fusion; conditions: Crystal; DSC

Nc1ccccc1O [2-hydroxybenzenamine]
[1], Crystal, Calculated from knudsen effusion weight loss
Conditions | vapor or sublimation pressure
321.12 K | 0.000107 kPa and 0.000105 kPa and 0.000106 kPa
323.43 K | 0.000141 kPa and 0.000138 kPa and 0.000139 kPa
325.14 K | 0.00017 kPa and 0.000172 kPa
327.13 K | 0.000212 kPa and 0.000214 kPa
329.3 K | 0.000271 kPa and 0.000277 kPa and 0.000275 kPa
331.21 K | 0.000343 kPa and 0.000335 kPa and 0.00034 kPa
333.13 K | 0.000423 kPa and 0.000419 kPa
335.33 K | 0.000534 kPa and 0.000541 kPa and 0.000538 kPa
337.2 K | 0.000661 kPa and 0.000654 kPa and 0.000657 kPa
339.14 K | 0.000824 kPa and 0.000835 kPa and 0.000826 kPa
341.33 K | 0.001036 kPa and 0.001041 kPa and 0.001043 kPa
343.26 K | 0.00129 kPa and 0.001263 kPa

Conditions | Normal melting temperature [°C]
[1], Crystal | 174.38

Conditions | Molar enthalpy of transition or fusion [kcal/mol]
[2] | 7.79

Nc1cccc(O)c1 [3-hydroxybenzenamine]
[1], Crystal, Calculated from knudsen effusion weight loss
Conditions | vapor or sublimation pressure
321.35 K | 0.000101 kPa and 0.000102 kPa
323.2 K | 0.000127 kPa and 0.000126 kPa
325.17 K | 0.000163 kPa and 0.000161 kPa and 0.000162 kPa
327.4 K | 0.000209 kPa and 0.000211 kPa and 0.00021 kPa
329.2 K | 0.00026 kPa and 0.000259 kPa
331.17 K | 0.000327 kPa and 0.00033 kPa and 0.000328 kPa
333.37 K | 0.000422 kPa and 0.00042 kPa
335.2 K | 0.000513 kPa and 0.0005 kPa and 0.00051 kPa
337.16 K | 0.00063 kPa and 0.000633 kPa
339.36 K | 0.000816 kPa and 0.000808 kPa and 0.000818 kPa
341.19 K | 0.00099 kPa and 0.000998 kPa and 0.001 kPa
343.33 K | 0.001245 kPa and 0.001241 kPa and 0.001238 kPa

[1]
Conditions | vapor or sublimation pressure [kPa]
354.45 K, Crystal | 0.00426
356.39 K, Crystal | 0.00515
358.34 K, Crystal | 0.00622
360.33 K, Crystal | 0.00754
362.32 K, Crystal | 0.00913
364.28 K, Crystal | 0.01083
366.24 K, Crystal | 0.01321
368.21 K, Crystal | 0.01572
369.99 K, Metastable liquid | 0.02985
370.19 K, Crystal | 0.01886
371.93 K, Metastable liquid | 0.03445
372.14 K, Crystal | 0.02314
373.94 K, Metastable liquid | 0.03983
374.12 K, Crystal | 0.02745
375.91 K, Metastable liquid | 0.04535
376.1 K, Crystal | 0.03277
377.86 K, Metastable liquid | 0.05245
378.06 K, Crystal | 0.0385
379.83 K, Metastable liquid | 0.06035
380.03 K, Crystal | 0.04532
381.81 K, Metastable liquid | 0.06885
382.13 K, Crystal | 0.05475
383.79 K, Metastable liquid | 0.07865
383.96 K, Crystal | 0.06316
385.75 K, Metastable liquid | 0.08925
385.9 K, Crystal | 0.07525
387.75 K, Metastable liquid | 0.1024
387.9 K, Crystal | 0.08917
389.74 K, Metastable liquid | 0.1162
389.85 K, Crystal | 0.1058
391.73 K, Metastable liquid | 0.131
391.83 K, Crystal | 0.1242
393.68 K, Metastable liquid | 0.1478
395.67 K, Metastable liquid | 0.1684
397.62 K, Liquid | 0.1915
399.72 K, Liquid | 0.2191
401.54 K, Liquid | 0.2426
403.63 K, Liquid | 0.2731
405.59 K, Liquid | 0.3119
407.46 K, Liquid | 0.3461
409.54 K, Liquid | 0.3932
411.5 K, Liquid | 0.4342
413.47 K, Liquid | 0.4825
415.43 K, Liquid | 0.5451
417.4 K, Liquid | 0.6031
419.39 K, Liquid | 0.6721
421.33 K, Liquid | 0.7506
423.31 K, Liquid | 0.8416

Conditions | Normal melting temperature [°C]
[1], Crystal | 121.48

Conditions | Molar enthalpy of transition or fusion [kcal/mol]
[2] | 5.6

Nc1ccc(O)cc1 [4-hydroxybenzenamine]
[1], Crystal, Calculated from knudsen effusion weight loss
Conditions | vapor or sublimation pressure
337.15 K | 0.000113 kPa and 0.000111 kPa
339.54 K | 0.000144 kPa and 0.000147 kPa and 0.000145 kPa
341.2 K | 0.000179 kPa and 0.000175 kPa and 0.000177 kPa
343.15 K | 0.000223 kPa and 0.000221 kPa and 0.000219 kPa
345.47 K | 0.000284 kPa and 0.00028 kPa and 0.000287 kPa
347.19 K | 0.000348 kPa and 0.000342 kPa and 0.000344 kPa
349.15 K | 0.000425 kPa and 0.000418 kPa and 0.000431 kPa
351.21 K | 0.000527 kPa and 0.000533 kPa and 0.00053 kPa
353.2 K | 0.000653 kPa and 0.000634 kPa and 0.000645 kPa
355.14 K | 0.000787 kPa and 0.000786 kPa and 0.000796 kPa
357.46 K | 0.001018 kPa and 0.001002 kPa and 0.001003 kPa
359.19 K | 0.001205 kPa and 0.001211 kPa and 0.001198 kPa

Conditions | Normal melting temperature [°C]
[1], Crystal | 186.89

Conditions | Molar enthalpy of transition or fusion [kcal/mol]
[2] | 7.51
